Assay results reported in publication PMC9381536, “Non-apoptotic cell death induction via sapogenin based supramolecular particles” (Scientific Reports, 2022).

Experiments:
[1] = Nile red staining (particle formation); format: physicochemical; conditions: Nile red, PBS, 3 h
Description: AG-08 and AG were dissolved in DMSO as a 1000-fold concentrated stock added into the filtered PBS, which contain 2.5 µM Nile red. After 3 h incubation at room temperature, the fluorescence intensity was measured with a microplate reader (550 nm for excitation and 635 nm for the emission wavelength) (Varioscan, Thermo Fisher Scientific, US).

[2] = tested on: differentially expressed genes; assay: Microarray gene expression analysis (human Clariom D); format: cell-based
Description: To investigate the overall cellular response to AG-08 treatment, microarray gene expression analysis of cells treated with vehicle and AG-08 treated groups was performed. […] Next, protein–protein interaction (PPI) network analysis was evaluated by the STRING (Search Tool for the Retrieval of Interacting Genes/Proteins) network. There were 61 nodes and 145 edges in the network (PPI enrichment p-value < 1 × 10^–16). […] Then, enrichment was performed using GO and KEGG pathway analyses.
Microarray analyses were conducted using the human Clariom D Affymetrix platform following the manufacturer’s instructions (902915, Thermo Fisher Scientific). Briefly, the total RNA was isolated using Total RNA Isolation Kit (Bio-Rad, US). Isolated total RNA was amplified, labeled, and hybridized on Clariom D Affymetrix platform. The arrays were stained by using GeneChip Fluidics Station 450. The cartridge was scanned with the GeneChip Scanner 3000 7G System (Affymetrix CA, USA).

[3] = tested on: MCF7; assay: Cytotoxicity analysis (WST-1); format: cell-based; conditions: Homo sapiens, MCF7, 48 h
Description: (§1) HCC1937 (Human breast cancer line), HeLa (Human […]), A549 (Human lung adenocarcinoma), MRC-5 (Human lung fibroblasts), MCF7 (Human breast cancer cells), A549 (human lung carcinoma) were obtained from American Type Culture Collection and maintained as exponentially growing monolayers by culturing according to the supplier’s instructions. MCF7, HeLa, MRC-5, and A549 cell lines were cultured and routinely passaged in DMEM media containing 10% FBS, while HCC1937 cell lines were propagated in RPMI 1640 containing 10% FBS.
(§2) Following the treatment with compounds or vehicle for 48 h, the 10% WST-1 (Roche, Switzerland) in medium was replaced in each 96 well. After 4 h incubation with WST-1 reagent at 37 °C and 5% CO2, the absorbance was measured using a microplate reader at 440 nm (Varioscan, Thermo Fisher Scientific, US). Graph Pad Prism 5 (San Diego, CA, US.) was used to calculate the IC50, which represents the concentration of compounds that is required for 50% inhibition in comparison to the vehicle-treated controls. The experiments were repeated three times independently.

[4] = tested on: MRC-5; assay: Cytotoxicity analysis (WST-1); format: cell-based; conditions: Homo sapiens, MRC5, MRC-5 normal cell line, 48 h
Description: as §1, §2

[5] = tested on: HeLa; assay: Cytotoxicity analysis (WST-1); format: cell-based; conditions: Homo sapiens, 48 h
Description: as §1, §2

[6] = fold change ≥ 3.0, p-value ≤ 0.05

## Cc1ccc(S(=O)(=O)OC2CCC3(C)C4=CCC5(C)C(C6(C)CCC(C(C)(C)O)O6)C(O)CC5(C)C4C=CC3C2(C)C)cc1 (stereo not shown) [AG-08]
[1]
  critical assembly concentration: approximately 2 µM
[2]; AC006548.19, control 6.1
  Gene expression level (Log2): 4.15 Log2
[2]; AC068797.1, control 6.72
  Gene expression level (Log2): 4.17 Log2
[2]; AC079949.1, control 5.75
  Gene expression level (Log2): 7.8 Log2
[2]; ACSM3, control 6.76
  Gene expression level (Log2): 4.97 Log2
[2]; AKAP12, control 6.27
  Gene expression level (Log2): 9.04 Log2
[2]; AL161626.1, control 2.85
  Gene expression level (Log2): 4.86 Log2
[2]; ATF3, control 5.19
  Gene expression level (Log2): 7.04 Log2
[2]; CCL20, control 12.58
  Gene expression level (Log2): 15.79 Log2
[2]; CHAC1, control 7.22
  Gene expression level (Log2): 9.98 Log2
[2]; CREB5, control 8.35
  Gene expression level (Log2): 11.14 Log2
[2]; CSF3, control 3.29
  Gene expression level (Log2): 5.21 Log2
[2]; CSRNP1, control 5.26
  Gene expression level (Log2): 7.09 Log2
[2]; CXCL2, control 8.19
  Gene expression level (Log2): 10.58 Log2
[2]; CXCL3, control 6.99
  Gene expression level (Log2): 9.67 Log2
[2]; CXCL8, control 9.63
  Gene expression level (Log2): 12.86 Log2
[2]; DAW1, control 4.73
  Gene expression level (Log2): 7.07 Log2
[2]; DDIT3, control 5.64
  Gene expression level (Log2): 8.56 Log2
[2]; DNAJB9, control 8.13
  Gene expression level (Log2): 10.33 Log2
[2]; DUSP1, control 10.95
  Gene expression level (Log2): 12.84 Log2
[2]; ERO1B, control 6.9
  Gene expression level (Log2): 8.83 Log2
[2]; ETS1, control 11.21
  Gene expression level (Log2): 13.17 Log2
[2]; FGF5, control 4.09
  Gene expression level (Log2): 6.46 Log2
[2]; FRMD6, control 7.12
  Gene expression level (Log2): 9.43 Log2
[2]; GADD45A, control 11.09
  Gene expression level (Log2): 13.43 Log2
[2]; GEM, control 4.45
  Gene expression level (Log2): 6.45 Log2
[2]; HERPUD1, control 13.87
  Gene expression level (Log2): 15.89 Log2
[2]; HSP90B1, control 8.38
  Gene expression level (Log2): 10.67 Log2
[2]; HSPA1A, control 13.53
  Gene expression level (Log2): 15.75 Log2
[2]; HSPA7, control 4.94
  Gene expression level (Log2): 7.45 Log2
[2]; IL1A, control 10.2
  Gene expression level (Log2): 12.9 Log2
[2]; IL1RL1, control 6.82
  Gene expression level (Log2): 10.06 Log2
[2]; IL6, control 9.32
  Gene expression level (Log2): 11.97 Log2
[2]; JUN, control 10.47
  Gene expression level (Log2): 12.32 Log2
[2]; KRT5, control 11.75
  Gene expression level (Log2): 9.49 Log2
[2]; LRRC49, control 6.77
  Gene expression level (Log2): 8.59 Log2
[2]; MAP1B, control 7.26
  Gene expression level (Log2): 9.32 Log2
[2]; MIR1284, control 5.93
  Gene expression level (Log2): 3.95 Log2
[2]; MIR6515, control 4.75
  Gene expression level (Log2): 6.96 Log2
[2]; NR4A1, control 6.63
  Gene expression level (Log2): 8.84 Log2
[2]; PTGS2, control 9.7
  Gene expression level (Log2): 11.9 Log2
[2]; RCAN1, control 11.4
  Gene expression level (Log2): 13.43 Log2
[2]; RN7SKP36, control 4.9
  Gene expression level (Log2): 6.69 Log2
[2]; RNA18S5, control 10
  Gene expression level (Log2): 12.08 Log2
[2]; RNU11-6P, control 5.74
  Gene expression level (Log2): 3.79 Log2
[2]; RP5-1180E21.5, control 9.91
  Gene expression level (Log2): 7.94 Log2
[2]; RP11-74J13.9, control 5.92
  Gene expression level (Log2): 3.93 Log2
[2]; RP11-253I19.3, control 5.74
  Gene expression level (Log2): 3.7 Log2
[2]; RP11-632K20.8, control 8.77
  Gene expression level (Log2): 6.86 Log2
[2]; SERPINE1, control 7.07
  Gene expression level (Log2): 9.03 Log2
[2]; SIRPG-AS1, control 6.81
  Gene expression level (Log2): 4.97 Log2
[2]; SPRR2A, control 6.12
  Gene expression level (Log2): 8.31 Log2
[2]; SPRY4, control 4.5
  Gene expression level (Log2): 6.6 Log2
[2]; TNFAIP3, control 12.92
  Gene expression level (Log2): 15.77 Log2
[2]; TNFAIP6, control 7.73
  Gene expression level (Log2): 10.32 Log2
[2]; TNFRSF9, control 6.22
  Gene expression level (Log2): 8.07 Log2
[2]; UPR gene ATF3
  Fold changes: 3.61
[2]; UPR gene CXCL8
  Fold changes: 9.38
[2]; UPR gene DAW1
  Fold changes: 5.06
[2]; UPR gene DDIT3 (CHOP)
  Fold changes: 7.57
[2]; UPR gene DNAJB9
  Fold changes: 4.59
[2]; UPR gene HERPUD1
  Fold changes: 4.06
[2]; UPR gene HSP90B1
  Fold changes: 4.89
[2]; UPR gene HYOU1
  Fold changes: 3.14
[2]; Y_RNA, control 2.96
  Gene expression level (Log2): 4.88 Log2
[2]; beyly, control 5.86
  Gene expression level (Log2): 3.88 Log2
[2]; bonawbu, control 6.42
  Gene expression level (Log2): 4.47 Log2
[2]; borflaw, control 4.1
  Gene expression level (Log2): 6.24 Log2
[2]; cheeju, control 7.11
  Gene expression level (Log2): 4.53 Log2
[2]; chergy, control 8.48
  Gene expression level (Log2): 6.6 Log2
[2]; chostarby, control 9.01
  Gene expression level (Log2): 6.86 Log2
[2]; choygey, control 9.26
  Gene expression level (Log2): 11.85 Log2
[2]; dymabu, control 7.28
  Gene expression level (Log2): 4.94 Log2
[2]; ferchor, control 6.47
  Gene expression level (Log2): 4.51 Log2
[2]; floynabo, control 3.01
  Gene expression level (Log2): 5.07 Log2
[2]; flyleyby, control 5.79
  Gene expression level (Log2): 3.87 Log2
[2]; flyspabu, control 6.68
  Gene expression level (Log2): 4.45 Log2
[2]; [6]
  number of genes downregulated: 115
  number of genes significantly affected: 193
  number of genes upregulated: 78
[2]; glupuby, control 8.3
  Gene expression level (Log2): 6.47 Log2
[2]; guzobu, control 4.94
  Gene expression level (Log2): 3.12 Log2
[2]; hunimo, control 2.97
  Gene expression level (Log2): 4.9 Log2
[2]; jawrubu, control 6.99
  Gene expression level (Log2): 4.94 Log2
[2]; keyfybu, control 6.35
  Gene expression level (Log2): 4.42 Log2
[2]; klobly, control 8.49
  Gene expression level (Log2): 6.7 Log2
[2]; kluky, control 6.37
  Gene expression level (Log2): 4.18 Log2
[2]; leeklerbu, control 4.21
  Gene expression level (Log2): 2.34 Log2
[2]; mazybu, control 5.07
  Gene expression level (Log2): 3.22 Log2
[2]; muneme, control 5.09
  Gene expression level (Log2): 3.26 Log2
[2]; myklar, control 6.22
  Gene expression level (Log2): 4.37 Log2
[2]; plergler, control 8.38
  Gene expression level (Log2): 5.85 Log2
[2]; rersharbu, control 8.82
  Gene expression level (Log2): 6.82 Log2
[2]; runara, control 7
  Gene expression level (Log2): 4.96 Log2
[2]; skaskoyby, control 8.54
  Gene expression level (Log2): 6.69 Log2
[2]; skeymeybo, control 4.08
  Gene expression level (Log2): 5.88 Log2
[2]; skoytoyby, control 3.86
  Gene expression level (Log2): 5.73 Log2
[2]; slorfley, control 5.24
  Gene expression level (Log2): 3.4 Log2
[2]; slukeebu, control 7.87
  Gene expression level (Log2): 5.7 Log2
[2]; snawperbu, control 10.99
  Gene expression level (Log2): 8.51 Log2
[2]; sneykleebu, control 7.89
  Gene expression level (Log2): 5.94 Log2
[2]; spaforby, control 10.31
  Gene expression level (Log2): 8.45 Log2
[2]; sparsloy, control 9.51
  Gene expression level (Log2): 7.2 Log2
[2]; spernawbo, control 7.18
  Gene expression level (Log2): 5.32 Log2
[2]; sportobo, control 11.14
  Gene expression level (Log2): 9.07 Log2
[2]; steybleebu, control 9.69
  Gene expression level (Log2): 7.5 Log2
[2]; swawchu, control 12.82
  Gene expression level (Log2): 10.51 Log2
[2]; sworkaby, control 2.37
  Gene expression level (Log2): 4.69 Log2
[2]; swyjee, control 7.88
  Gene expression level (Log2): 6.02 Log2
[2]; teesnarby, control 5.92
  Gene expression level (Log2): 4.07 Log2
[2]; vybu, control 2.47
  Gene expression level (Log2): 4.27 Log2
[2]; vyglabu, control 2.86
  Gene expression level (Log2): 4.99 Log2
[3]
  IC50: 3.78 µM
[4]
  IC50: 2.58 µM
[5]
  IC50: 5.7 µM
